From article PMC10646256, “Scutellarin Rescued Mitochondrial Damage through Ameliorating Mitochondrial Glucose Oxidation via the Pdk‐Pdc Axis” (Advanced Science, 2023)

Biological target: pyruvate dehydrogenase kinase 2 (PDK2) (Homo sapiens, UniProt Q15119)
Test: mobility shift kinase assay with purified GST-PDK2; supported by DARTS, CETSA, co-IP-MS and LiP-MS
Assay type: biochemical

Which “mobility shift kinase assay with purified GST-PDK2; supported by DARTS, CETSA, c” value does the source give for `O=C(O)[C@H]1O[C@@H](Oc2cc3oc(-c4ccc(O)cc4)cc(=O)c3c(O)c2O)[C@H](O)[C@@H](O)[C@@H]1O` [SG, Scutellarin] here?
Its value is “SG had significantly higher inhibitory activity against PDK2 than DCA at multiple concentrations”.
